pIC50: −log10 of the molar value. Where two headings read alike, the source gives them in different places.
How the values were obtained:
human DAO = human DAO (Homo sapiens, UniProt P19801); type: biochemical; details: 30 μM, 40 min, 37 °C
[1] = test system: panel of 14 common transporters; type: in vitro ADME, human; details: 30 µM; 14 targets screened
LOX, human = LOX, human (Homo sapiens, UniProt P28300); test: LOX activity assay; type: biochemical; details: compared to MPO or VAP-1
MPO [2] = target: T1, MPO (Homo sapiens, UniProt P05164); test: MPO LDL lipid peroxidation assay; type: biochemical
T1 sequence (P05164 279-745): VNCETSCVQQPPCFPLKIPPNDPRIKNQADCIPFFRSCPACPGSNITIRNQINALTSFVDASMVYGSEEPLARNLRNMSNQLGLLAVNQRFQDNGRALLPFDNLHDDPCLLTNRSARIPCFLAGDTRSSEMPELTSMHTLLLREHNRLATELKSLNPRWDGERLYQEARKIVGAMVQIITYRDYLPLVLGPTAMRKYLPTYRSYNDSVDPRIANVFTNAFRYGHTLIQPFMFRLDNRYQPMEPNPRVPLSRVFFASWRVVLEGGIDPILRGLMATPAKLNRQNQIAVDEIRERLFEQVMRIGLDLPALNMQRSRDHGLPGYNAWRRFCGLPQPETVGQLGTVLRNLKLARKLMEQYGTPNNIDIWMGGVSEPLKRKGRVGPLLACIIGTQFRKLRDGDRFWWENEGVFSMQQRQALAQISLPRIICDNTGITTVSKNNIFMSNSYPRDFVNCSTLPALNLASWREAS
T1 sequence (P05164 165-273): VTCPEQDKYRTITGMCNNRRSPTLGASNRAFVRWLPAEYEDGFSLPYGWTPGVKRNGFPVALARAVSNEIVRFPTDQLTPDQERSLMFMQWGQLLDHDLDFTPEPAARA

[3] = test system: λ-carrageenan-induced leucocyte infiltration and oedema; test: Carrageenan air pouch model; type: in vivo, mouse; details: for leucocyte influx into the air pouch at 4-h: oral SNT-8370 30, verdiperstat 15, PXS-4707 6, dexamethasone 10 mg/kg
recombinant human VAP-1 = recombinant human VAP-1 (Homo sapiens, UniProt Q16853); type: biochemical; details: 30 μM, 40 min, 37 °C
Sequence of recombinant human VAP-1 (Q16853 34-763): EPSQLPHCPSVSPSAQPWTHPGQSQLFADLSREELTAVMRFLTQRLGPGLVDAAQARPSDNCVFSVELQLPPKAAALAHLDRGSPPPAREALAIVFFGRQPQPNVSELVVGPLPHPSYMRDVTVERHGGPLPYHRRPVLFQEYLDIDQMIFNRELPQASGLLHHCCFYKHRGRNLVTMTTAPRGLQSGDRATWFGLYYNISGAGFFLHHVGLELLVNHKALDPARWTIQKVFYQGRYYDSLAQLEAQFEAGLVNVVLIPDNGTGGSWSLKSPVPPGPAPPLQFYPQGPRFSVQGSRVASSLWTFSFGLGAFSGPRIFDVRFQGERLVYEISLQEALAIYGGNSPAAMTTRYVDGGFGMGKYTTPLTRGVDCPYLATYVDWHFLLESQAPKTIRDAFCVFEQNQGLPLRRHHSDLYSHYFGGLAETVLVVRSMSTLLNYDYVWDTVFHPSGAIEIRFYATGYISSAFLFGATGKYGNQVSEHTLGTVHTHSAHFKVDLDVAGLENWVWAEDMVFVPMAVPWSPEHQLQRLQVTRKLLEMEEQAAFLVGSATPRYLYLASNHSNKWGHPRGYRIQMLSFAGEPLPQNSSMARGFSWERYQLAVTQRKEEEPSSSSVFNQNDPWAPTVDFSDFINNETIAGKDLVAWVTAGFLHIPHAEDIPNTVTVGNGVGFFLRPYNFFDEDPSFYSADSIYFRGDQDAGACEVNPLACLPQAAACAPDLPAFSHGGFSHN

[4] = test system: myocardial ischaemia/reperfusion injury; test: Myocardial infarction; type: in vivo, rat; details: 60 mg/kg oral twice daily, 4 weeks
in vivo = type: in vivo, C57Bl/6J mice; details: mouse
[5] = for drug concentration in peritoneal lavage fluid: 5 h after gavage
[6] = test system: panel of 68 enzymes, receptors, ion channels and transporters; details: 10 µM; 68 targets screened
[7] = test system: LPS-induced lung leucocyte infiltration; test: Acute lung injury; type: in vivo, mouse; details: 6 h post-LPS; oral SNT-8370 30, verdiperstat 30, PXS-4707 10 mg/kg
HepG2 cells = type: cell-based; details: tested up to 100 μM in HepG2 cells
native human MPO = native human MPO (Homo sapiens, UniProt P05164); test: MPO-catalysed H2O2 consumption, Amplex Red assay; type: biochemical
Sequence of native human MPO (P05164 279-745): as the sequence (P05164 279-745) above
Sequence of native human MPO (P05164 165-273): as the sequence (P05164 165-273) above

MPO [8] = target: T1, MPO; test: MPO chlorination assay; type: biochemical
MPO [9] = target: T1, MPO; test: MPO-catalysed H2O2 consumption, H2O2-specific electrode; type: biochemical
VAP-1 = VAP-1 (Mus musculus, UniProt O70423); test: VAP-1 activity in adipose tissue; type: in vivo; details: 6 h; oral SNT-8370 60 mg/kg, PXS-4707 6 mg/kg
Sequence of VAP-1 (O70423 whole entry): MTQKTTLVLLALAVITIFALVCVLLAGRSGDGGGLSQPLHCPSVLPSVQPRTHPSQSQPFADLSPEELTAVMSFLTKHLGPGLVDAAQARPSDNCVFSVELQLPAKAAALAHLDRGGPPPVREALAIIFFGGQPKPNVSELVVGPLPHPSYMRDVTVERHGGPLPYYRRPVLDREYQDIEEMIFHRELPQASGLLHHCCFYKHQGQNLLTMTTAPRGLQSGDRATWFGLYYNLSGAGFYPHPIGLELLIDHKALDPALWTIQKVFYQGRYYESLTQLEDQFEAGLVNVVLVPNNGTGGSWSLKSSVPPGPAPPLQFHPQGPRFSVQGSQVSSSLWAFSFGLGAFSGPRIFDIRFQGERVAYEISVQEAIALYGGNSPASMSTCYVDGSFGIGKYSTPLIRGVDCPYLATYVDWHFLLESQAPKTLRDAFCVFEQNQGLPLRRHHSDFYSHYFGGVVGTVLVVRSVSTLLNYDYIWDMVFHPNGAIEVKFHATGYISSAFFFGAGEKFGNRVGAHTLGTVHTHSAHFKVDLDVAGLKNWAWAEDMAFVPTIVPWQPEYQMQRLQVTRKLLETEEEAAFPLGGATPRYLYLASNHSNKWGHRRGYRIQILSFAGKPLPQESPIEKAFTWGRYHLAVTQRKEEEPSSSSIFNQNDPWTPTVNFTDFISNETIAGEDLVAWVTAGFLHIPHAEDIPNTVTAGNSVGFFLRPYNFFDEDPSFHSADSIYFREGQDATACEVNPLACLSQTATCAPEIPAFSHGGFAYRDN

[10] = test system: thioglycolate broth-induced peritoneal leucocyte infiltration; test: Peritonitis leucocyte trafficking model; type: in vivo, mouse; details: 6 h; oral SNT-8370 60, verdiperstat 60, PXS-4707 6 mg/kg
MPO [11] = target: T1, MPO; test: MPO partition ratio assay; type: biochemical; details: mean ± SEM, n = 3; MPO 60 nM, 2 μM H2O2
MPO [12] = target: MPO (Mus musculus, UniProt P11247); test: Acute peritonitis; type: in vivo; details: for reduction of peritoneal MPO activity: oral 60 mg/kg; for effect on lavage fluid MPO protein concentration (ELISA): thioglycolate broth/zymosan A-treated mice
Sequence of MPO (Mus musculus, UniProt P11247) (P11247 139-718): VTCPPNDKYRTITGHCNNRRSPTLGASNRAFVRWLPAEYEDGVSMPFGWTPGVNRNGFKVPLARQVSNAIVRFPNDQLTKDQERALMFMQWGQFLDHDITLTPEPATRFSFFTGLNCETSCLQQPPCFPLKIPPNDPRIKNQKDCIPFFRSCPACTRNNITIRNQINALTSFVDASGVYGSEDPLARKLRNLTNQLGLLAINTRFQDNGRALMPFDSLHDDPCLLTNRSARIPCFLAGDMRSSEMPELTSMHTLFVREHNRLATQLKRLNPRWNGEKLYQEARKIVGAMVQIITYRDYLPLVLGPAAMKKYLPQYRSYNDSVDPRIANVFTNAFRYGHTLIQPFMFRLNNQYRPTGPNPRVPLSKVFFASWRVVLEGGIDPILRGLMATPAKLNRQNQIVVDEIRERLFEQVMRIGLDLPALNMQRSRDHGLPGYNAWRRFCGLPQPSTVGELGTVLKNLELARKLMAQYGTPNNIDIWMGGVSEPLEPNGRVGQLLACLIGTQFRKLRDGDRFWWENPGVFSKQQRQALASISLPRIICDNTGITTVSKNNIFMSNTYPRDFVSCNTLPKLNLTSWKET

MAO-A, human = MAO-A, human (Homo sapiens, UniProt P21397); test: MAO-A activity assay; type: biochemical; details: compared to MPO or VAP-1
Sequence of MAO-A, human (P21397 whole entry): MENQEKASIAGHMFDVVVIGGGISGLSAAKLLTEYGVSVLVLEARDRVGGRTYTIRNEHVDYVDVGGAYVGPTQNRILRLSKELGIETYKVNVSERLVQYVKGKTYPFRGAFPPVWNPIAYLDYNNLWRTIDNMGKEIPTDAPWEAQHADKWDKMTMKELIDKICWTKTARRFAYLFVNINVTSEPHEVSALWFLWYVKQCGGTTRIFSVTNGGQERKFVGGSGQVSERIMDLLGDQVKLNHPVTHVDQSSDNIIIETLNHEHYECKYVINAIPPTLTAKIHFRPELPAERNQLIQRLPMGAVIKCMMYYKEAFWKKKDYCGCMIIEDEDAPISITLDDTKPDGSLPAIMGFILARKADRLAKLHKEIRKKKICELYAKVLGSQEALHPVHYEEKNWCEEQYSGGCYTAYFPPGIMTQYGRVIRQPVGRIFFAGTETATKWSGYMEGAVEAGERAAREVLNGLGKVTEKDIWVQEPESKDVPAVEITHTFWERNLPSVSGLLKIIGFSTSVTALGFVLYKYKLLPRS

[13] = SNT-8370 30, verdiperstat 15, PXS-4707 6, dexamethasone 10 mg/kg

Sequence of LOX, human (P28300 169-417): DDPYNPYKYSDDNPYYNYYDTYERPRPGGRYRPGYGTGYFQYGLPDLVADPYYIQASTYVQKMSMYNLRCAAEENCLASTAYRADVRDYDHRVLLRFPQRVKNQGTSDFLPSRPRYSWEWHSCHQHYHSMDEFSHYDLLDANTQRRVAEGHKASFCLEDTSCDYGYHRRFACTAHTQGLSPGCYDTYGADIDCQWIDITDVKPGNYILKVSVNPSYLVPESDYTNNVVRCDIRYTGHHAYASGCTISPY
Sequence of human DAO (P19801 20-751): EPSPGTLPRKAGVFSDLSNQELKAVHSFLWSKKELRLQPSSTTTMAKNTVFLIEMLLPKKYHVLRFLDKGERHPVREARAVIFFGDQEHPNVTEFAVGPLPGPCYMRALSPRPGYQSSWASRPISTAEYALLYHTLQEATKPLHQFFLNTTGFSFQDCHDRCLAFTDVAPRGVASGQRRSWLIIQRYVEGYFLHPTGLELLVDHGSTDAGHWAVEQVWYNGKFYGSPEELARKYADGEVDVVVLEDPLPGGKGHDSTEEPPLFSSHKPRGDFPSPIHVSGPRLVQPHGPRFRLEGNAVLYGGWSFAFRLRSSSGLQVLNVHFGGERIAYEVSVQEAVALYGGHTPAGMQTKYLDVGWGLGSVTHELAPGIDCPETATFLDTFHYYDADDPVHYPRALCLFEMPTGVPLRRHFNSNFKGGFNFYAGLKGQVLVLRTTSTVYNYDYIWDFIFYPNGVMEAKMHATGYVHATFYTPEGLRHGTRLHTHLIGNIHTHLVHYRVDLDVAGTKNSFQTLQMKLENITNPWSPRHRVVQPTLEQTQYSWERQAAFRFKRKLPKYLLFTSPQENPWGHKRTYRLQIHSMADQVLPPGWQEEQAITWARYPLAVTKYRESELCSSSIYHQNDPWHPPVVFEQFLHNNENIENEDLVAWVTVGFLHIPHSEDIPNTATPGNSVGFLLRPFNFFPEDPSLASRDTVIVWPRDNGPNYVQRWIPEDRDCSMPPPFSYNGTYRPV

SMILES: NC/C(=C\F)COc1cccc(Cn2c(=S)[nH]c(=O)c3[nH]cnc32)c1 [SNT-8370, (E)-3-(3-((2-(aminomethyl)-3-fluoroallyl)oxy)benzyl)-2-thioxo-1,2,3,7-tetrahydro-6H-purin-6-one]
- Substrate turnover, DAO (human DAO): no turnover observed
- Eurofins Transporter screen, hits (>50% inhibition) [1]: no significant inhibition
- selectivity index over LOX (LOX, human): > 1000 fold
- pIC50 (MPO [2]): 7.70
- fold lower IC50 than verdiperstat, LDL lipid peroxidation (MPO [2]): 30 fold
- air pouch exudate volume at 12-h ([3]; SNT-8370 10 mg/kg): significantly reduced
- air pouch exudate volume at 12-h [3, 13]: significantly reduced
- leucocyte influx into the air pouch at 4-h [3]: significantly reduced
- Substrate turnover, VAP-1 (recombinant human VAP-1): No oxidative turnover
- cardiac fibrosis (picrosirius red, Masson's trichrome, periostin) [4]: significantly reduce
- ejection fraction post-MI [4]: prevented the significant post-MI reduction
- fractional shortening post-MI [4]: prevented the significant post-MI reduction
- half-life (in vivo; C57Bl/6J, in vivo, po): 2 to 4 h
- time of highest drug concentrations after oral gavage (in vivo): 1 h
- drug in the brain (in vivo; oral gavage): No drug was detectable
- drug concentration in peritoneal lavage fluid ([5]; oral 10 mg/kg): 1.1 ng/mL
- drug concentration in peritoneal lavage fluid ([5]; oral 30 mg/kg): 1.5 ng/mL
- drug concentration in peritoneal lavage fluid, molar equivalent ([5]; oral 60 mg/kg): 170 nM
- drug concentration in peritoneal lavage fluid ([5]; oral 60 mg/kg): ~ 60 ng/mL
- drug concentration in peritoneal lavage fluid, molar equivalent ([5]; oral 10 and 30 mg/kg): < 4 nM
- Eurofins PanLabs screen, hits (>50% inhibition) [6]: No significant off-targets
- lung infiltration of neutrophils (BALF) [7]: significantly reduced
- lung infiltration of total leucocytes (BALF) [7]: significantly reduced
- Cell health (cytotoxicity) (HepG2 cells): no toxicity
- MPO IC50 more potent than AZD5904 (native human MPO): ~ 3 fold
- MPO IC50 more potent than verdiperstat (native human MPO): ~ 2 fold
- fold lower IC50 than verdiperstat or PF06282999, HOCl production (MPO [8]): 2–5 fold
- fold lower IC50 than verdiperstat or PF06282999, H2O2 consumption (MPO [9]): 5-8 fold
- inhibition of in vivo VAP-1 activity in adipose tissue (VAP-1): > 90%
- neutrophils in the peritoneum [10]: significantly reduced
- total immune cells (leucocytes) in the peritoneum [10]: significantly reduced
- partition ratio for MPO inhibition (MPO [11]): 15.7 ± 2.4
- effect on peritoneal MPO activity (MPO [12]; oral 10 mg/kg): no effect
- effect on peritoneal MPO activity (MPO [12]; oral 30 mg/kg): no effect
- reduction of peritoneal MPO activity (MPO [12]): > 50%
- effect on lavage fluid MPO protein concentration (ELISA) (MPO [12]): no effect
- selectivity index over MAO-A (MAO-A, human): > 1000 fold

SMILES: CC(C)OCCn1c(=S)[nH]c(=O)c2[nH]ccc21 [Verdiperstat, reference compound]
- pIC50 (MPO [2]): 6.22
- air pouch exudate volume at 12-h [3, 13]: neither verdiperstat nor PXS-4707, significantly reduced
- leucocyte influx into the air pouch at 4-h [3]: significantly reduced
- drug concentration in peritoneal lavage fluid ([5]; oral 60 mg/kg): > 10 ng/mL
- lung infiltration of neutrophils (BALF) [7]: non-significant downward trends
- lung infiltration of total leucocytes (BALF) [7]: non-significant downward trends
- neutrophils in the peritoneum [10]: Neither of the monotherapy treatments showed a significant effect
- total immune cells (leucocytes) in the peritoneum [10]: Neither of the monotherapy treatments showed a significant effect
- reduction of peritoneal MPO activity (MPO [12]): > 50%
- effect on lavage fluid MPO protein concentration (ELISA) (MPO [12]): no effect

SMILES: C[C@@H]1C[C@H]2[C@@H]3CCC4=CC(=O)C=C[C@]4(C)[C@@]3(F)[C@@H](O)C[C@]2(C)[C@@]1(O)C(=O)CO [dexamethasone]
- air pouch exudate volume at 12-h [3, 13]: significantly reduced
- leucocyte influx into the air pouch at 4-h [3]: significantly reduced

Source: article PMC11985910 (Nature Communications, 2025)
